Structures are written as SMILES. A value given as a limit tells only on which side of the number the result lay.

The results in this text go back to ChEMBL document CHEMBL1127637, “Antiplatelet agents based on cyclooxygenase inhibition without ulcerogenesis. Evaluation and synthesis of 4,5-bis(4-methoxyphenyl)-2-substituted-thiazoles” (J Med Chem, 1994).

What all share (format): functional
One assay is filed under the species Oryctolagus cuniculus. Briefly: In vitro antiplatelet activity against arachidonic acid induced malondialdehyde production.
For the next assay, the species on record is Rattus norvegicus. Description: In vitro vasodilatory activity in isolated rat aorta. The following applies: read-out: ED50 (the source's name).
The test system of assay [1] is Cavia porcellus. Briefly: Inhibitory effect on platelet aggregation induced by Arachidonic acid (AA) in guinea pigs ex vivo at a dose of 3.2 mg/Kg after 6 hr of oral administration.
Assay [2] has as its system Cavia porcellus. Briefly: Inhibitory effect on platelet aggregation induced by Collagen in guinea pigs ex vivo at a dose of 3.2 mg/Kg after 6 hr of oral administration.

With `COc1ccc(-c2nc(CCC(=O)O)sc2-c2ccc(OC)cc2)cc1`, the IC50 in the assay listed under Oryctolagus cuniculus was below 100 nM. In addition, the EC50 in the assay listed under Rattus norvegicus is above 100000 nM.

On to `COc1ccc(-c2nc(C(=O)N3CCN(C(=O)NC(C)C)CC3)sc2-c2ccc(OC)cc2)cc1`, for which the IC50 in the assay listed under Oryctolagus cuniculus was above 1000 nM. Further, the EC50 in the assay filed under Rattus norvegicus stood at 15000 nM.

`CCOC(=O)CC(c1nc(-c2ccc(OC)cc2)c(-c2ccc(OC)cc2)s1)N1CCN(C)CC1` (centres undefined) came in with an IC50 in the assay listed under Oryctolagus cuniculus above 1000 nM. Further, the EC50 in the assay listed under Rattus norvegicus turned out to be 2600 nM.

Take `COc1ccc(-c2nc(C(=O)N=C(N)N)sc2-c2ccc(OC)cc2)cc1`: the IC50 in the assay listed under Oryctolagus cuniculus was above 100 nM. In addition, in the assay filed under Rattus norvegicus, the EC50 is above 100000 nM.

Compound `C/N=C(/NC)Nc1nc(-c2ccc(OC)cc2)c(-c2ccc(OC)cc2)s1` returned an IC50 in the assay listed under Oryctolagus cuniculus of 970 nM.

Compound `CCOC(=O)C1=C(C)N=C(C)/C(=C(/O)OCC)C1c1nc(-c2ccc(OC)cc2)c(-c2ccc(OC)cc2)s1` (centres undefined) gave an IC50 in the assay listed under Oryctolagus cuniculus below 100 nM. Also, the EC50 in the assay listed under Rattus norvegicus is above 32000 nM.

`COc1ccc(-c2nc(/N=C(\N)NC(C)C)sc2-c2ccc(OC)cc2)cc1` displayed a concentration for half-maximal inhibition (IC50) in the assay filed under Oryctolagus cuniculus above 100 nM. Further, the EC50 in the assay listed under Rattus norvegicus stood at 9100 nM.

On to `CC/N=C(/N)Nc1nc(-c2ccc(OC)cc2)c(-c2ccc(OC)cc2)s1`, for which the IC50 in the assay listed under Oryctolagus cuniculus was above 100 nM.

In the assay filed under Oryctolagus cuniculus, `COc1ccc(-c2nc(C(N)=O)sc2-c2ccc(OC)cc2)cc1` had an IC50 above 1000 nM.

Turning to `CNC(=O)NCc1nc(-c2ccc(OC)cc2)c(-c2ccc(OC)cc2)s1`, the IC50 in the assay filed under Oryctolagus cuniculus amounted to 22 nM. Moreover, the EC50 in the assay listed under Rattus norvegicus is 15000 nM.

For the compound `COc1ccc(-c2nc(/C=C/C(=O)N3CCN(C)CC3)sc2-c2ccc(OC)cc2)cc1`, the IC50 in the assay filed under Oryctolagus cuniculus was above 1000 nM. Further, in the assay filed under Rattus norvegicus, the EC50 worked out at 20000 nM.

`COc1ccc(-c2nc(C(=O)N3CCNC(CCO)C3)sc2-c2ccc(OC)cc2)cc1` (centres undefined) had an IC50 in the assay listed under Oryctolagus cuniculus above 1000 nM. For the same compound, the EC50 in the assay listed under Rattus norvegicus stood at 9500 nM.

For `COc1ccc(-c2nc(N=C(N)N)sc2-c2ccc(OC)cc2)cc1`, half-maximal inhibition in the assay listed under Oryctolagus cuniculus (IC50) required 31000 nM. For the same compound, the EC50 in the assay listed under Rattus norvegicus came to 2000 nM.

As for `COc1ccc(-c2nc(CNC(=O)N3CCOCC3)sc2-c2ccc(OC)cc2)cc1`, the half-maximal inhibitory concentration (IC50) in the assay listed under Oryctolagus cuniculus came out at 660 nM. In addition, the EC50 in the assay filed under Rattus norvegicus was determined as 12000 nM.

Turning to `COc1ccc(-c2nc(C(=O)N3CCCCC3CCO)sc2-c2ccc(OC)cc2)cc1` (centres undefined), the Inhibition % with Cavia porcellus [1] and in the assay with Cavia porcellus [2] was 100% in each case. The same compound had a concentration for half-maximal inhibition (IC50) in the assay listed under Oryctolagus cuniculus of 45 nM. The EC50 in the assay listed under Rattus norvegicus was found to be 6800 nM.

`CCOC(=O)/C=C/c1nc(-c2ccc(OC)cc2)c(-c2ccc(OC)cc2)s1`: the IC50 in the assay listed under Oryctolagus cuniculus came to 20 nM. In addition, in the assay listed under Rattus norvegicus, the EC50 is above 100000 nM.

On to `COc1ccc(-c2nc(C3=NNC(=O)CC3)sc2-c2ccc(OC)cc2)cc1`, for which the IC50 in the assay filed under Oryctolagus cuniculus is above 1000 nM.

In the case of `COc1ccc(-c2nc(/C=C/C(=O)O)sc2-c2ccc(OC)cc2)cc1`, in the assay filed under Oryctolagus cuniculus, the IC50 was above 100 nM. The EC50 in the assay listed under Rattus norvegicus is 55000 nM.

As for `COc1ccc(-c2nc(C(=O)N3CCCN(C)CC3)sc2-c2ccc(OC)cc2)cc1`, the IC50 in the assay listed under Oryctolagus cuniculus is above 100 nM. The EC50 in the assay listed under Rattus norvegicus worked out at 4300 nM.

`COc1ccc(-c2nc(CNC(=O)c3cccnc3)sc2-c2ccc(OC)cc2)cc1`: the Inhibition % in the assay with Cavia porcellus [1] was 40.3%; with Cavia porcellus [2], 37.4%. The same compound had an IC50 in the assay listed under Oryctolagus cuniculus of 25 nM.

In turn, `COc1ccc(-c2nc(/N=C(\N)NC3CCCCC3)sc2-c2ccc(OC)cc2)cc1` yielded a 50% inhibitory concentration (IC50) in the assay filed under Oryctolagus cuniculus above 1000 nM. Moreover, the EC50 in the assay listed under Rattus norvegicus is above 100000 nM.

In turn, `COc1ccc(-c2nc(C(=O)N3CCCCC3)sc2-c2ccc(OC)cc2)cc1` displayed an IC50 in the assay listed under Oryctolagus cuniculus above 1000 nM. The EC50 in the assay filed under Rattus norvegicus came to 11000 nM.

In the assay filed under Oryctolagus cuniculus, `COc1ccc(-c2nc(CN)sc2-c2ccc(OC)cc2)cc1` yielded an IC50 above 100 nM. Also, the EC50 in the assay filed under Rattus norvegicus stood at 7700 nM.

In the case of `COc1ccc(-c2nc(C(=O)NCCN3CCOCC3)sc2-c2ccc(OC)cc2)cc1`, the concentration for half-maximal inhibition (IC50) in the assay filed under Oryctolagus cuniculus was above 1000 nM. Also, the EC50 in the assay filed under Rattus norvegicus is 8700 nM.

`CCOC(=O)/C(C#N)=C/c1nc(-c2ccc(OC)cc2)c(-c2ccc(OC)cc2)s1` showed an IC50 in the assay listed under Oryctolagus cuniculus below 10 nM. For the same compound, the EC50 in the assay filed under Rattus norvegicus is above 100000 nM.

For the compound `COc1ccc(-c2nc(C3=CCN(C)CC3)sc2-c2ccc(OC)cc2)cc1`, the figures for the inhibition in vivo at 3.2 mg/kg with Cavia porcellus [1] and in the assay on Cavia porcellus [2] were 100% and 69.3%, respectively. Besides, the IC50 in the assay filed under Oryctolagus cuniculus is below 10 nM. In the assay listed under Rattus norvegicus, the EC50 amounted to 5900 nM.

`COc1ccc(-c2nc(/N=C(\N)n3ccnc3)sc2-c2ccc(OC)cc2)cc1` showed an IC50 in the assay filed under Oryctolagus cuniculus above 100 nM.

Broadly, the IC50 is the midpoint of a concentration-inhibition curve. A high value points to lower potency. For orientation: inhibition in vivo means the share of the control response that was lost under treatment. Lower therefore signals a weak effect.
